Reference: PubChem BioAssay AID256 (DTP/NCI, 2004)
Values joined by “and” are separate entries in the source; they are usually repeats but may differ in a detail not shown here. Identical values can stand only once. Inconclusive results and toxic doses are left out. Rule for the calls: active = survival T/C of 150% or more; inactive = T/C below 125% in these data.

System: CD2F1 mice, L1210 leukemia ip, survival T/C
Assay: NCI In Vivo Anticancer Drug Screen. Data for tumor model L1210 Leukemia (intraperitoneal) in CD2F1 (CDF1) mice
Conditions: higher = longer survival
Summary of the method: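 Vehicle-treated tumor-bearing mice served as controls (C) for compound-treated mice (T). Reported figure is T divided by C.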

[1] = endpoint: mean survival time, dose: 75.0 mg/kg/injection, schedule: Q01DX001 (ip), vehicle: saline
[2] = endpoint: mean survival time, dose: 100.0 mg/kg/injection, schedule: Q04DX003 (ip), vehicle: saline
[3] = endpoint: mean survival time, dose: 200.0 mg/kg/injection, schedule: Q04DX003 (ip), vehicle: saline
[4] = endpoint: mean survival time, dose: 400.0 mg/kg/injection, schedule: Q04DX003 (ip), vehicle: saline
[5] = endpoint: mean survival time, dose: 100.0 mg/kg/injection, schedule: Q01DX009 (ip), vehicle: saline with Tween-80
[6] = endpoint: mean survival time, dose: 200.0 mg/kg/injection, schedule: Q01DX001 (ip), vehicle: saline with Tween-80
[7] = endpoint: mean survival time, dose: 200.0 mg/kg/injection, schedule: Q01DX009 (ip), vehicle: saline with Tween-80
[8] = endpoint: mean survival time, dose: 400.0 mg/kg/injection, schedule: Q01DX009 (ip), vehicle: saline with Tween-80
[9] = endpoint: mean survival time, dose: 25.0 mg/kg/injection, schedule: Q01DX009 (ip), vehicle: saline with Tween-80
[10] = endpoint: mean survival time, dose: 50.0 mg/kg/injection, schedule: Q01DX009 (ip), vehicle: saline with Tween-80
[11] = endpoint: mean survival time, dose: 100.0 mg/kg/injection, schedule: Q04DX003 (ip), vehicle: saline with Tween-80
[12] = endpoint: mean survival time, dose: 200.0 mg/kg/injection, schedule: Q04DX003 (ip), vehicle: saline with Tween-80
[13] = endpoint: mean survival time, dose: 400.0 mg/kg/injection, schedule: Q04DX003 (ip), vehicle: saline with Tween-80
[14] = endpoint: mean survival time, dose: 25.0 mg/kg/injection, schedule: Q04DX002 (ip), vehicle: saline with Tween-80
[15] = endpoint: mean survival time, dose: 50.0 mg/kg/injection, schedule: Q04DX002 (ip), vehicle: saline with Tween-80
[16] = endpoint: mean survival time, dose: 12.5 mg/kg/injection, schedule: Q01DX009 (ip), vehicle: Klucel (hydroxypropylcellulose) (HPC)
[17] = endpoint: mean survival time, dose: 25.0 mg/kg/injection, schedule: Q01DX009 (ip), vehicle: Klucel (hydroxypropylcellulose) (HPC)
[18] = endpoint: mean survival time, dose: 50.0 mg/kg/injection, schedule: Q01DX009 (ip), vehicle: Klucel (hydroxypropylcellulose) (HPC)
[19] = endpoint: mean survival time, dose: 100.0 mg/kg/injection, schedule: Q04DX002 (ip), vehicle: saline with Tween-80
[20] = endpoint: mean survival time, dose: 150.0 mg/kg/injection, schedule: Q01DX001 (ip), vehicle: saline

Measured: T/C

O=C(c1ccccc1)C(Sc1ccccc1)Sc1ccccc1
inactive: endpoint: median survival time, dose: 50.0 mg/kg/injection, schedule: Q04DX002 (ip), vehicle: saline with Tween-80 100 % of control | endpoint: median survival time, dose: 100.0 mg/kg/injection, schedule: Q04DX002 (ip), vehicle: saline with Tween-80 100 % of control | endpoint: median survival time, dose: 200.0 mg/kg/injection, schedule: Q04DX002 (ip), vehicle: saline with Tween-80 100 % of control | endpoint: median survival time, dose: 400.0 mg/kg/injection, schedule: Q04DX002 (ip), vehicle: saline with Tween-80 110 % of control

CC(=O)C=C(C)[O][Tl]
inactive: [1] 102 % of control

CCSC(SCC)[C@H](NC(C)=O)[C@@H](O)[C@H](O)[C@H](O)CO
inactive: [2] 101 % of control | [3] 98 % of control | [4] 95 % of control

CC(C)N1C(=O)[N+](C)(C)N=C1[O-]
inactive: endpoint: mean survival time, dose: 100.0 mg/kg/injection, schedule: Q01DX001 (ip), vehicle: saline with Tween-80 103 % of control | [5] 89 % of control | [6] 101 % of control | [7] 97 % of control | endpoint: mean survival time, dose: 400.0 mg/kg/injection, schedule: Q01DX001 (ip), vehicle: saline with Tween-80 104 % of control | [8] 101 % of control

Cc1[nH]c(C(=O)NN)c(C)c1C(=O)NN
inactive: [9] 111 % of control | [10] 100 % of control | [5] 103 % of control | [11] 98 % of control

CN1CCC(O)(O)C(Br)C1 (stereo not given)
inactive: endpoint: mean survival time, dose: 18.8 mg/kg/injection, schedule: Q01DX009 (ip), vehicle: saline 98 % of control | endpoint: mean survival time, dose: 18.8 mg/kg/injection, schedule: Q04DX003 (ip), vehicle: saline 102 % of control | endpoint: mean survival time, dose: 37.5 mg/kg/injection, schedule: Q01DX009 (ip), vehicle: saline 100 % of control | endpoint: mean survival time, dose: 37.5 mg/kg/injection, schedule: Q04DX003 (ip), vehicle: saline 106 % of control | [1] 102 % of control | endpoint: mean survival time, dose: 75.0 mg/kg/injection, schedule: Q01DX009 (ip), vehicle: saline 88 % of control | endpoint: mean survival time, dose: 75.0 mg/kg/injection, schedule: Q04DX003 (ip), vehicle: saline 100 % of control

O=C(O)C1CCCN1C(=O)c1ccccc1 (stereo not given)
inactive: [11] 103 % of control | [12] 93 % of control | [13] 98 % of control

NNC(=O)CCC(=O)NN
inactive: endpoint: mean survival time, dose: 6.25 mg/kg/injection, schedule: Q01DX009 (ip), vehicle: saline 111 % of control | endpoint: mean survival time, dose: 12.5 mg/kg/injection, schedule: Q01DX009 (ip), vehicle: saline 103 % of control | endpoint: mean survival time, dose: 25.0 mg/kg/injection, schedule: Q01DX009 (ip), vehicle: saline 97 % of control | [2] 98 % of control | [3] 113 % of control | [4] 101 % of control

CC1(C)COC(Cc2ccccc2Br)=N1
inactive: [2] 101 % of control | [3] 93 % of control | [4] 93 % of control

S=C=Nc1ccc(Cl)c2ccccc12
inactive: endpoint: mean survival time, dose: 12.5 mg/kg/injection, schedule: Q04DX002 (ip), vehicle: saline with Tween-80 90 % of control | [14] 98 % of control | [15] 102 % of control

Nc1ccc2c(S(=O)(=O)O)ccc(O)c2c1
inactive: [5] 100 % of control | [11] 96 % of control | [7] 93 % of control | [12] 96 % of control | [8] 90 % of control | [13] 98 % of control

CCOC(=O)c1cnc2c(cnn2CC)c1N1CCN(CCO)CC1
inactive: endpoint: mean survival time, dose: 100.0 mg/kg/injection, schedule: Q04DX003 (ip), vehicle: Klucel (hydroxypropylcellulose) (HPC) 101 % of control

Cc1ccc(N=Cc2cc(Cl)ccc2O)cc1.Cc1ccc(N=Cc2cc(Cl)ccc2O)cc1.[Co]
inactive: endpoint: mean survival time, dose: 25.0 mg/kg/injection, schedule: Q04DX003 (ip), vehicle: saline 95 % of control and 104 % of control | endpoint: mean survival time, dose: 50.0 mg/kg/injection, schedule: Q04DX003 (ip), vehicle: saline 98 % of control and 108 % of control | [2] 124 % of control and 89 % of control

CCOC(=O)c1[nH]c(C2OC(CO)C(O)C2O)nc1O (stereo not given)
inactive: endpoint: median survival time, dose: 49.9 mg/kg/injection, schedule: Q01DX005 (ip), vehicle: saline 96 % of control | endpoint: median survival time, dose: 99.7 mg/kg/injection, schedule: Q01DX005 (ip), vehicle: saline 98 % of control | endpoint: median survival time, dose: 199.3 mg/kg/injection, schedule: Q01DX005 (ip), vehicle: saline 96 % of control

CCN(CC)Cc1cc(Nc2cc(C)nc(/N=C(\N)Nc3cc(Cl)cc(Cl)c3)n2)ccc1O
inactive: [16] 93 % of control | [17] 102 % of control | [14] 97 % of control | [18] 105 % of control | [15] 94 % of control | endpoint: mean survival time, dose: 100.0 mg/kg/injection, schedule: Q01DX001 (ip), vehicle: Klucel (hydroxypropylcellulose) (HPC) 95 % of control | [19] 94 % of control | endpoint: mean survival time, dose: 200.0 mg/kg/injection, schedule: Q01DX001 (ip), vehicle: Klucel (hydroxypropylcellulose) (HPC) 115 % of control

COc1ccc(-c2c(C(=O)NCCc3ccccc3)[nH]c(-c3ccccc3)c2-c2ccccc2)cc1
inactive: [1] 95 % of control | [20] 98 % of control

COCNC(=S)N/N=C/c1ccc(O)cn1
inactive: [19] 95 % of control | endpoint: mean survival time, dose: 200.0 mg/kg/injection, schedule: Q04DX002 (ip), vehicle: saline with Tween-80 98 % of control | endpoint: mean survival time, dose: 400.0 mg/kg/injection, schedule: Q04DX002 (ip), vehicle: saline with Tween-80 102 % of control

CCc1ccc2ccccc2c1N
inactive: [10] 108 % of control | [5] 110 % of control | [6] 94 % of control | [7] 118 % of control

CC(C)NCCO
inactive: [1] 98 % of control | endpoint: mean survival time, dose: 100.0 mg/kg/injection, schedule: Q01DX001 (ip), vehicle: saline 97 % of control | [20] 100 % of control | endpoint: mean survival time, dose: 200.0 mg/kg/injection, schedule: Q01DX001 (ip), vehicle: saline 97 % of control

CCNC(=S)Nc1ccccc1
inactive: [10] 103 % of control | [5] 100 % of control | [7] 111 % of control

C=CS(=O)(=O)c1ccc([N+](=O)[O-])cc1
inactive: [14] 88 % of control

COc1cc2c(c(OC)c1O)-c1ccc(OC)c(=O)cc1[C@@H](NC(C)=O)CC2
inactive: endpoint: mean survival time, dose: 1.25 mg/kg/injection, schedule: Q01DX005 (ip), vehicle: Klucel (hydroxypropylcellulose) (HPC) 103 % of control | endpoint: mean survival time, dose: 2.5 mg/kg/injection, schedule: Q01DX005 (ip), vehicle: Klucel (hydroxypropylcellulose) (HPC) 104 % of control | endpoint: mean survival time, dose: 3.12 mg/kg/injection, schedule: Q01DX009 (ip), vehicle: saline 118 % of control | endpoint: mean survival time, dose: 5.0 mg/kg/injection, schedule: Q01DX005 (ip), vehicle: Klucel (hydroxypropylcellulose) (HPC) 110 % of control | endpoint: mean survival time, dose: 20.0 mg/kg/injection, schedule: Q01DX005 (ip), vehicle: Klucel (hydroxypropylcellulose) (HPC) 121 % of control | endpoint: mean survival time, dose: 40.0 mg/kg/injection, schedule: Q01DX005 (ip), vehicle: Klucel (hydroxypropylcellulose) (HPC) 110 % of control

CC1(C)N=C(N)N=C(N)N1c1cccc(C(C#N)CCCc2ccccc2)c1 (stereo not given)
inactive: [16] 104 % of control | [17] 104 % of control | [18] 88 % of control

CCOC(=O)Oc1c(OC)cc(C(=O)O[C@@H]2C[C@@H]3CN4CCc5c([nH]c6cc(OC)ccc56)[C@H]4C[C@@H]3[C@H](C(=O)OC)[C@H]2OC)cc1OC
inactive: [9] 104 % of control | [5] 94 % of control | [11] 103 % of control
